Reference: patent US9328386B2, “Markers for susceptibility to an inhibitor of an Src-family kinase” (Evotec (München) GmbH, priority 2011, dated 2016)

Assays:
Assay in all cases: Cellular growth inhibition (CellTiter Glo viability assay)
Type in all cases: cell-based
[1] = system: Calu6 NSCLC cell line; conditions: Homo sapiens
[2] = system: H1395 NSCLC cell line; conditions: Homo sapiens
[3] = system: H157 NSCLC cell line; conditions: Homo sapiens
[4] = system: H1648 NSCLC cell line; conditions: Homo sapiens
[5] = system: H1666 NSCLC cell line; conditions: Homo sapiens
[6] = system: H2009 NSCLC cell line; conditions: Homo sapiens
[7] = system: H2030 NSCLC cell line; conditions: Homo sapiens
[8] = system: H2077 NSCLC cell line; conditions: Homo sapiens, H2077
[9] = system: H2172 NSCLC cell line; conditions: Homo sapiens
[10] = system: H460 NSCLC cell line; conditions: Homo sapiens
[11] = system: H520 NSCLC cell line; conditions: Homo sapiens
[12] = system: LouNH91 NSCLC cell line; conditions: Homo sapiens, LouNH91
[13] = system: HCC366 NSCLC cell line; conditions: Homo sapiens
[14] = system: HCC4006 NSCLC cell line; conditions: Homo sapiens
[15] = system: HCC78 NSCLC cell line; conditions: Homo sapiens
[16] = system: H322M NSCLC cell line; conditions: Homo sapiens, NCI-H322M
[17] = system: HCC2279 NSCLC cell line; conditions: Homo sapiens, HCC2279
[18] = system: PC9 NSCLC cell line; conditions: Homo sapiens, PC9
[19] = read-out: Sensitivity Saracatinib
[20] = 96 hours of treatment, read-out: GI50

## CN1CCN(CCOc2cc(OC3CCOCC3)c3c(Nc4c(Cl)ccc5c4OCO5)ncnc3c2)CC1 [saracatinib, N-(5-Chloro-1,3-benzodioxol-4-yl)-7-[2-(4-methyl-1-piperazinyl)ethoxy]-5-[(tetrahydro-2H-pyran-4-yl)oxy]-4-quinazolinamine]
[1]; Calu-6, read-out: Sensitivity Saracatinib
  IC50: > 3.5 µM
[1]; Calu-6, 96 hours of treatment, read-out: GI50
  GI50: 30 µM
[2]; NCI-H1395, read-out: Sensitivity Saracatinib
  IC50: > 3.5 µM
[2]; NCI-H1395, H1395, 96 hours of treatment, read-out: GI50
  GI50: 31.7 µM
[3]; NCI-H157, read-out: Sensitivity Saracatinib
  IC50: > 3.5 µM
[3]; NCI-H157, H157, 96 hours of treatment, read-out: GI50
  GI50: 13.9 µM
[4]; NCI-H1648, read-out: Sensitivity Saracatinib
  IC50: < 3.5 µM
[4]; NCI-H1648, H1648, 96 hours of treatment, read-out: GI50
  GI50: 1510 nM
[5]; NCI-H1666, read-out: Sensitivity Saracatinib
  IC50: < 3.5 µM
[5]; NCI-H1666, H1666, 96 hours of treatment, read-out: GI50
  GI50: 2200 nM
[6]; NCI-H2009, read-out: Sensitivity Saracatinib
  IC50: > 3.5 µM
[6]; NCI-H2009, H2009, 96 hours of treatment, read-out: GI50
  GI50: 4.31 µM
[7]; NCI-H2030, read-out: Sensitivity Saracatinib
  IC50: < 3.5 µM
[7]; NCI-H2030, H2030, 96 hours of treatment, read-out: GI50
  GI50: 443 nM
[8]; [19]
  IC50: > 3.5 µM
[8]; [20]
  GI50: 14.8 µM
[9]; NCI-H2172, read-out: Sensitivity Saracatinib
  IC50: > 3.5 µM
[9]; NCI-H2172, H2172, 96 hours of treatment, read-out: GI50
  GI50: 28.5 µM
[10]; NCI-H460, read-out: Sensitivity Saracatinib
  IC50: > 3.5 µM
[10]; NCI-H460, H460, 96 hours of treatment, read-out: GI50
  GI50: 12.1 µM
[11]; NCI-H520, read-out: Sensitivity Saracatinib
  IC50: > 3.5 µM
[11]; NCI-H520, H520, 96 hours of treatment, read-out: GI50
  GI50: 4.56 µM
[12]; LOU-NH91, read-out: Sensitivity Saracatinib
  IC50: < 3.5 µM
[12]; LOU-NH91, 96 hours of treatment, read-out: GI50
  GI50: 1180 nM
[13]; HCC366, read-out: Sensitivity Saracatinib
  IC50: < 3.5 µM
[13]; HCC366, 96 hours of treatment, read-out: GI50
  GI50: 1240 nM
[14]; HCC4006, read-out: Sensitivity Saracatinib
  IC50: < 3.5 µM
[14]; HCC4006, 96 hours of treatment, read-out: GI50
  GI50: 132 nM
[15]; HCC78, read-out: Sensitivity Saracatinib
  IC50: < 3.5 µM
[15]; HCC78, 96 hours of treatment, read-out: GI50
  GI50: 267 nM
[16]; [19]
  IC50: < 3.5 µM
[16]; H322M, 96 hours of treatment, read-out: GI50
  GI50: 876 nM
[17]; [19]
  IC50: < 3.5 µM
[17]; [20]
  GI50: 660 nM
[18]; PC-9, read-out: Sensitivity Saracatinib
  IC50: < 3.5 µM
[18]; [20]
  GI50: 147 nM
